Data taken from patent US20250129086A1, “COMPOUND FOR DEGRADING EGFR PROTEIN AND USE THEREOF” (TYK MEDICINES, INC., priority 2021, published 2025).

Key:
Format in all cases: cell-based, human
[1] = tested on: H1975 (EGFR L858R/T790M double mutation); experiment: Cell antiproliferative assay (CTG, 72 h), H1975; details: Homo sapiens, NCI-H1975, 72 h, Table 2, H1975 cells
Protocol: (§1) Test Example 1 Cell Antiproliferative Assay
(§2) H1975: with EGFR: L858R/T790M double mutation; PC-9 with EGFR exon 19 deletion, HCC827 with exon 19 deletion mutation. CellCounting-Lite2.0, Trypsin EDTA, 37° C. CO2 incubator, cell counter, EnVision Serial No.1050454. II. Experimental preparation:
(§3) • (A) Trypsin EDTA was used to digest log-phase cells, medium was added to terminate the reaction, and a cell suspension was made by blowing and mixing with a pipette. • (B) Cell concentration was determined using Vi-cell, and a suspension of 15,000-25,000 cells per milliliter was made depending on the purpose of the experiment and the characteristics of the cells. • (C) After the cell suspension was prepared, it was gently mixed and 100 microliters per well was added so that the density of cells to be tested was 1500-2500 per well.
(§4) • (A) About 2 mg of compound was weighed, and the volume of DMSO required was calculated according to the formula: compound mass (mg)*compound purity (%)/compound molecular weight*1000 • (B) The inoculated cell culture plates were incubated in an incubator and the compounds with concentration gradient were added after about 24 hours. • (C)10 Mm of compound stock solution was diluted to […] with medium, and 50 Mm of compound solution was added sequentially to the second column of the deep-well plate, and […] of medium containing 0.5% DMSO was added to the third to eleventh columns. • (D) Gradient dilution: 125 μl of solution was pipetted from the second column and added to the third column, after mixing; another 125 μl of solution was pipetted from the third column and added to the fourth column, and the operation was repeated until the tenth column. • (E)25 μl of compound was pipetted from the deep-well plate into a 96-well culture plate using a multichannel pipette, and each compound was repeated three times on the 96-well plate. A maximum concentration of 10,000 nm with concentration gradient of 1:4 was eventually formed on the 96-well plate.
(§5) • (A)96-well plates were incubated in an incubator for 72 h. The effect of the compounds was observed under an inverted microscope. • (B)25 μl of CTG solution was added to each well, the plate was put on shaker for 10 minutes and the […] of each well was read.
(§6) The cell viability rate (% Cell Viability) was calculated using the following formula: • % Cell Viability=100%×(Lum_Sample-Lum_LC)/(Lum_HC-Lum_LC) • Lum_HC: Cell reading of 0.1% DMSO control • Lum_Sample: Cell reading with compound added • Lum_LC: Reading of Blank media • IC50 values were obtained by curve fitting with GraphPad Prism 8 software.

[2] = tested on: PC-9 (EGFR exon 19 deletion); experiment: Cell antiproliferative assay (CTG, 72 h), PC-9; details: Homo sapiens, PC-9, 72 h, Table 2, PC-9 cells
Protocol: as §1, §2, §3, §4, §5, §6

[3] = tested on: HCC827 (exon 19 deletion mutation); experiment: Cell antiproliferative assay (CTG, 72 h), HCC827; details: Homo sapiens, HCC827, 72 h, Table 2, HCC827 cells
Protocol: as §1, §2, §3, §4, §5, §6

COc1cc(N2CCN(C(=O)CN3CCN(c4ccc(NC5CCC(=O)NC5=O)cc4)CC3)CC2)ccc1Nc1ncc(Cl)c(Nc2ccccc2C(C)=O)n1 (centres unmarked) [Compound T-82]
IC50 [1]: 100 to 1000 nM
IC50 [2]: ≥ 1000 nM
IC50 [3]: ≥ 1000 nM

COc1cc(N2CCN(C(=O)CN3CCC(c4ccc(NC5CCC(=O)NC5=O)cc4)CC3)CC2)ccc1Nc1ncc(Cl)c(Nc2cccc(F)c2)n1 (centres unmarked) [Compound T-09]
IC50 [1]: 10 to 100 nM
IC50 [2]: ≥ 1000 nM
IC50 [3]: ≥ 1000 nM

COc1cc(N2CCN(C(=O)CN3CCC(c4ccc(NC5CCC(=O)NC5=O)cc4)CC3)CC2)ccc1Nc1ncc(Cl)c(Nc2cc(F)ccc2F)n1 (centres unmarked) [Compound T-132]
IC50 [1]: 100 to 1000 nM
IC50 [2]: ≥ 1000 nM
IC50 [3]: 100 to 1000 nM

CNC(=O)c1ccccc1Nc1nc(Nc2cc(CC(F)(F)F)c(N3CCN(C(=O)CN4CCC(c5ccc(NC6CCC(=O)NC6=O)cc5)CC4)CC3)cc2OC)ncc1Br (centres unmarked) [Compound T-381]
IC50 [1]: 10 to 100 nM

COc1cc(N2CCN(C(=O)CN3CCC(c4ccc(NC5CCC(=O)NC5=O)cc4)CC3)CC2)ccc1Nc1ncc(Cl)c(Nc2cccc3c2C(=O)N(C)C3)n1 (centres unmarked) [Compound T-268]
IC50 [1]: 10 to 100 nM
IC50 [2]: 10 to 100 nM
IC50 [3]: 10 to 100 nM

C=CC(=O)Nc1cc(Nc2nccc(-c3cn(C)c4ccccc34)n2)c(OC)cc1N(C)CCN(C)CC(=O)N1CCC(c2ccc(NC3CCC(=O)NC3=O)cc2)CC1 (centres unmarked) [Compound T-237]
IC50 [1]: ≥ 1000 nM
IC50 [2]: 100 to 1000 nM
IC50 [3]: 100 to 1000 nM

COc1cc(N2CCN(C(=O)CC3(F)CCN(c4ccc(NC5CCC(=O)NC5=O)cc4)CC3)CC2)ccc1Nc1ncc(Cl)c(Nc2ccccc2C(C)=O)n1 (centres unmarked) [Compound T-303]
IC50 [1]: 10 to 100 nM
IC50 [2]: 10 to 100 nM
IC50 [3]: 10 to 100 nM

CCc1cc(Nc2ncc(Cl)c(Nc3ccccc3C(=O)NC)n2)c(OC)cc1N1CCN(C(=O)CN2CCC(c3ccc(NC4CCC(=O)NC4=O)cc3)CC2)CC1 (centres unmarked) [Compound T-361]
IC50 [1]: 10 to 100 nM

COc1cc(N2CCN(C(=O)CN3CCC(c4ccc5c(cnn5C5CCC(=O)NC5=O)c4)CC3)CC2)ccc1Nc1ncc(Cl)c(Nc2ccccc2)n1 (centres unmarked) [Compound T-326]
IC50 [1]: 100 to 1000 nM

COc1cc(N2CCN(C(=O)CN3CCC(c4ccc(NC5CCC(=O)NC5=O)cc4)CC3)CC2)ccc1Nc1ncc(Cl)c(Nc2ccccc2OC)n1 (centres unmarked) [Compound T-200]
IC50 [1]: 10 to 100 nM
IC50 [2]: 100 to 1000 nM
IC50 [3]: 100 to 1000 nM

COc1nc(N2CCN(C(=O)CN3CCC(c4ccc(NC5CCC(=O)NC5=O)cc4)CC3)CC2)ccc1Nc1ncc(Cl)c(Nc2ccccc2C(C)=O)n1 (centres unmarked) [Compound T-208]
IC50 [1]: 100 to 1000 nM

COc1cc(N2CCN(C(=O)CN3CCC(c4ccc(NC5CCC(=O)NC5=O)cc4)CC3)CC2)ccc1Nc1ncc(Cl)c(Nc2ccccc2C(=O)NC2CCCC2)n1 (centres unmarked) [Compound T-341]
IC50 [1]: 10 to 100 nM
IC50 [2]: ≥ 1000 nM
IC50 [3]: 100 to 1000 nM

CNC(=O)c1ccccc1Nc1nc(Nc2cc(C#N)c(N3CCN(C(=O)CN4CCC(c5ccc(NC6CCC(=O)NC6=O)cc5)CC4)CC3)cc2OC)ncc1Cl (centres unmarked) [Compound T-283]
IC50 [1]: ≤ 10 nM
IC50 [2]: 10 to 100 nM
IC50 [3]: 10 to 100 nM

CP(C)(=O)c1ccccc1Nc1nc(Nc2ccc(N3CCN(C(=O)CN4CCC(c5ccc(NC6CCC(=O)NC6=O)cc5)CC4)CC3)cc2Cl)ncc1Cl (centres unmarked) [Compound T-330]
IC50 [1]: 100 to 1000 nM
IC50 [2]: 100 to 1000 nM
IC50 [3]: 100 to 1000 nM

CNC(=O)c1ccccc1Nc1nc(Nc2cc(C)c(N3CCN(C(=O)CN4CCC(c5ccc(NC6CCC(=O)NC6=O)cc5F)CC4)CC3)cc2OC)ncc1Br (centres unmarked) [Compound T-368]
IC50 [1]: 10 to 100 nM
IC50 [2]: 10 to 100 nM
IC50 [3]: 10 to 100 nM

COC(=O)Nc1ccccc1Nc1nc(Nc2ccc(N3CCN(C(=O)CN4CCC(c5ccc(NC6CCC(=O)NC6=O)cc5)CC4)CC3)cc2OC)ncc1Cl (centres unmarked) [Compound T-340]
IC50 [1]: 100 to 1000 nM

COc1cc(N2CCN(C(=O)CN3CCC(c4ccc(NC5CCC(=O)NC5=O)cc4)CC3)CC2)ccc1Nc1ncc(Cl)c(Nc2ccccc2NS(C)(=O)=O)n1 (centres unmarked) [Compound T-218]
IC50 [1]: 10 to 100 nM
IC50 [2]: 100 to 1000 nM
IC50 [3]: 10 to 100 nM

COc1cc(N2CCN(C(=O)CN3CCC(c4ccc(NC5CCC(=O)NC5=O)nc4)CC3)CC2)ccc1Nc1ncc(Cl)c(Nc2ccccc2C(C)=O)n1 (centres unmarked) [Compound T-100]
IC50 [1]: 100 to 1000 nM
IC50 [2]: 100 to 1000 nM
IC50 [3]: 100 to 1000 nM
